Test results from PubChem BioAssay AID248 (DTP/NCI, 2004).
Toxic doses and inconclusive results are not listed.

Tested on: L1210 leukemia ip in BDF1 mice, survival T/C
Experiment: NCI In Vivo Anticancer Drug Screen. Data for tumor model L1210 Leukemia (intraperitoneal) in B6D2F1 (BDF1) mice
Conditions: endpoint: mean survival time, higher = longer survival
Summary of the method: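 In this screen, tumor-bearing mice given compound are compared to those given vehicle, and their survival values are reported as a treated-to-control quotient.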

[1] = dose: 100.0 mg/kg/injection, schedule: Q04DX003 (ip), vehicle: Klucel (hydroxypropylcellulose) (HPC)
[2] = dose: 200.0 mg/kg/injection, schedule: Q04DX003 (ip), vehicle: Klucel (hydroxypropylcellulose) (HPC)
[3] = dose: 400.0 mg/kg/injection, schedule: Q04DX003 (ip), vehicle: Klucel (hydroxypropylcellulose) (HPC)
[4] = dose: 100.0 mg/kg/injection, schedule: Q04DX003 (ip), vehicle: saline with Tween-80
[5] = dose: 100.0 mg/kg/injection, schedule: Q01DX001 (ip), vehicle: saline
[6] = dose: 200.0 mg/kg/injection, schedule: Q01DX001 (ip), vehicle: saline
[7] = dose: 400.0 mg/kg/injection, schedule: Q01DX001 (ip), vehicle: saline
[8] = dose: 100.0 mg/kg/injection, schedule: Q01DX009 (ip), vehicle: saline
[9] = dose: 100.0 mg/kg/injection, schedule: Q04DX003 (ip), vehicle: saline
[10] = dose: 200.0 mg/kg/injection, schedule: Q01DX009 (ip), vehicle: saline
[11] = dose: 200.0 mg/kg/injection, schedule: Q04DX003 (ip), vehicle: saline
[12] = dose: 400.0 mg/kg/injection, schedule: Q01DX009 (ip), vehicle: saline
[13] = dose: 400.0 mg/kg/injection, schedule: Q04DX003 (ip), vehicle: saline
[14] = dose: 100.0 mg/kg/injection, schedule: Q01DX001 (ip), vehicle: carboxymethylcellulose (CMC)
[15] = dose: 200.0 mg/kg/injection, schedule: Q01DX001 (ip), vehicle: carboxymethylcellulose (CMC)
[16] = dose: 400.0 mg/kg/injection, schedule: Q01DX001 (ip), vehicle: carboxymethylcellulose (CMC)
[17] = dose: 200.0 mg/kg/injection, schedule: Q04DX003 (ip), vehicle: saline with Tween-80
[18] = dose: 400.0 mg/kg/injection, schedule: Q04DX003 (ip), vehicle: saline with Tween-80
[19] = dose: 100.0 mg/kg/injection, schedule: Q01DX009 (ip), vehicle: Klucel (hydroxypropylcellulose) (HPC)
[20] = dose: 200.0 mg/kg/injection, schedule: Q01DX009 (ip), vehicle: Klucel (hydroxypropylcellulose) (HPC)
[21] = dose: 400.0 mg/kg/injection, schedule: Q01DX009 (ip), vehicle: Klucel (hydroxypropylcellulose) (HPC)

SMILES: CCOC(=O)CCC(NC(=O)c1ccc(NC)c([N+](=O)[O-])c1)C(=O)OCC (stereo unspecified)
- T/C [1]: 98 % of control
- T/C [2]: 100 % of control
- T/C [3]: 96 % of control

SMILES: O=C(Nc1cccc(C2=NCCN2)c1)Nc1cc(C(=O)Nc2ccc(C3=NCCN3)cc2)ccc1C(=O)Nc1ccc(C2=NCCN2)cc1
- T/C (dose: 1.88 mg/kg/injection, schedule: Q01DX Z (ip), vehicle: saline): 121 % of control
- T/C (dose: 3.75 mg/kg/injection, schedule: Q01DX Z (ip), vehicle: saline): 123 % of control
- T/C (dose: 3.75 mg/kg/injection, schedule: Q01DX Z (oral), vehicle: saline): 98 % of control
- T/C (dose: 7.5 mg/kg/injection, schedule: Q01DX Z (ip), vehicle: saline): 161 % of control
- T/C (dose: 7.5 mg/kg/injection, schedule: Q01DX Z (oral), vehicle: saline): 104 % of control
- T/C (dose: 15.0 mg/kg/injection, schedule: Q01DX Z (oral), vehicle: saline): 103 % of control
- T/C (dose: 30.0 mg/kg/injection, schedule: Q01DX Z (oral), vehicle: saline): 101 % of control
- T/C (dose: 62.5 mg/kg/injection, schedule: Q01DX010 (oral), vehicle: saline): 101 % of control
- T/C (dose: 125.0 mg/kg/injection, schedule: Q01DX010 (oral), vehicle: saline): 108 % of control
- T/C (dose: 250.0 mg/kg/injection, schedule: Q01DX010 (oral), vehicle: saline): 105 % of control

SMILES: C=CC1CCCCC1C=C (stereo unspecified)
- T/C (dose: 12.5 mg/kg/injection, schedule: Q01DX009 (ip), vehicle: saline with Tween-80): 104 % of control
- T/C (dose: 25.0 mg/kg/injection, schedule: Q01DX009 (ip), vehicle: saline with Tween-80): 102 % of control
- T/C (dose: 50.0 mg/kg/injection, schedule: Q01DX009 (ip), vehicle: saline with Tween-80): 102 % of control

SMILES: O=S(=O)(/C=C\c1ccccc1)/C=C/c1ccccc1
- T/C (dose: 25.0 mg/kg/injection, schedule: Q04DX003 (ip), vehicle: saline with Tween-80): 96 % of control
- T/C (dose: 50.0 mg/kg/injection, schedule: Q04DX003 (ip), vehicle: saline with Tween-80): 94 % of control
- T/C [4]: 92 % of control

SMILES: CCOC(=O)C1C(CCCCO)CC(=O)CC1(C)C(N)=O (stereo unspecified)
- T/C [5]: 97 % of control
- T/C [6]: 91 % of control
- T/C [7]: 95 % of control

SMILES: CCOC(=O)c1cnc(C)nc1C
- T/C [8]: 95 % of control
- T/C [9]: 103 % of control
- T/C [10]: 100 % of control
- T/C [11]: 98 % of control
- T/C [12]: 95 % of control
- T/C [13]: 98 % of control

SMILES: CC1(C)N=C(N)N=C(N)N1c1cccc(OCCOc2ccc(NC(=O)/C=C/C(=O)O)cc2)c1
- T/C [14]: 101 % of control
- T/C [15]: 97 % of control
- T/C [16]: 94 % of control

SMILES: CCCCCCCCN(C)N=Nc1ccc(Cl)cc1C(=O)O
- T/C (dose: 150.0 mg/kg/injection, schedule: Q01DX009 (ip), vehicle: Klucel (hydroxypropylcellulose) (HPC)): 117 % of control

SMILES: Clc1cccc(C[N+]23CC[N+](Cc4cccc(Cl)c4)(CC2)C3)c1
- T/C [5]: 103 % of control
- T/C [6]: 111 % of control

SMILES: O=c1oc(/C=C/c2ccccc2)nc2cc(Cl)ccc12
- T/C (dose: 100.0 mg/kg/injection, schedule: Q01DX009 (ip), vehicle: saline with Tween-80): 103 % of control
- T/C (dose: 200.0 mg/kg/injection, schedule: Q01DX009 (ip), vehicle: saline with Tween-80): 101 % of control
- T/C (dose: 400.0 mg/kg/injection, schedule: Q01DX009 (ip), vehicle: saline with Tween-80): 96 % of control

SMILES: N/N=C\C(=N/N)C(O)C(O)C(O)C(O)CO (stereo unspecified)
- T/C [4]: 86 % of control
- T/C [17]: 88 % of control
- T/C [18]: 93 % of control

SMILES: Cc1ccc(N2C(=O)CC(N3CCCCC3)C2=O)cc1 (stereo unspecified)
- T/C [19]: 102 % of control
- T/C [20]: 96 % of control
- T/C [21]: 91 % of control

SMILES: O=C(O)CC(CC(=O)O)n1cccc1
- T/C (dose: 75.0 mg/kg/injection, schedule: Q01DX001 (ip), vehicle: acetone): 96 % of control
- T/C (dose: 150.0 mg/kg/injection, schedule: Q01DX001 (ip), vehicle: acetone): 91 % of control
- T/C (dose: 300.0 mg/kg/injection, schedule: Q01DX001 (ip), vehicle: acetone): 94 % of control

SMILES: CS/C(N)=N\S(=O)(=O)c1ccc(NC(C)=O)cc1
- T/C [4]: 93 % of control
- T/C [17]: 90 % of control
- T/C [18]: 96 % of control

SMILES: O=C(NCCCl)Nc1cccc2c(O)cccc12
- T/C [1]: 98 % of control
- T/C [2]: 96 % of control
- T/C [3]: 107 % of control

SMILES: S=c1nc[nH]c2c1[nH]c(=S)n2CCc1cnc[nH]1
- T/C (dose: 24.0 mg/kg/injection, schedule: Q01DX009 (ip), vehicle: steriod suspending solution): 98 % of control
- T/C (dose: 39.0 mg/kg/injection, schedule: Q01DX009 (ip), vehicle: steriod suspending solution): 100 % of control
- T/C (dose: 65.0 mg/kg/injection, schedule: Q01DX009 (ip), vehicle: steriod suspending solution): 102 % of control
- T/C (dose: 108.0 mg/kg/injection, schedule: Q01DX009 (ip), vehicle: steriod suspending solution): 88 % of control
- T/C (dose: 400.0 mg/kg/injection, schedule: Q01DX001 (ip), vehicle: steriod suspending solution): 94 % of control

SMILES: Cc1ccc2c(c1)c(C)c(C)c(=O)n2C
- T/C [5]: 98 % of control
- T/C [6]: 93 % of control
- T/C [7]: 96 % of control

SMILES: CCSc1c(Cl)c(Cl)c(Cl)c(Cl)c1Cl
- T/C [19]: 97 % of control
- T/C [20]: 100 % of control
- T/C [21]: 87 % of control

SMILES: O=C(CCCC(=O)N/N=C/c1ccc(O)cc1O)N/N=C\c1ccc(O)cc1O
- T/C (dose: 50.0 mg/kg/injection, schedule: Q01DX001 (ip), vehicle: saline): 90 % of control
- T/C [5]: 96 % of control
- T/C [6]: 96 % of control
- T/C [7]: 93 % of control

SMILES: COc1ccc(/C(C)=N\OC(=O)N(C)C)c(OC)c1
- T/C [14]: 100 % of control
- T/C [15]: 100 % of control
- T/C [16]: 103 % of control

SMILES: COC(=O)CC(c1ccc2c(c1)OCO2)N1CCOCC1 (stereo unspecified)
- T/C [5]: 119 % of control
- T/C [6]: 113 % of control
- T/C [7]: 104 % of control

SMILES: Cc1cc(NCCCN(C)C)c2c(c1N)C(=O)c1ccccc1C2=O
- T/C [1]: 88 % of control
- T/C [2]: 92 % of control
- T/C [3]: 92 % of control

SMILES: CCOC(=O)C(C#N)C(C)CC(C)C (stereo unspecified)
- T/C (dose: 50.0 mg/kg/injection, schedule: Q01DX001 (ip), vehicle: saline with Tween-80): 102 % of control
- T/C (dose: 100.0 mg/kg/injection, schedule: Q01DX001 (ip), vehicle: saline with Tween-80): 102 % of control
- T/C (dose: 200.0 mg/kg/injection, schedule: Q01DX001 (ip), vehicle: saline with Tween-80): 93 % of control

SMILES: CCCc1cc(C)cc(N=Cc2ccccc2)c1O
- T/C [4]: 101 % of control
- T/C [17]: 97 % of control
- T/C [18]: 98 % of control

SMILES: C#CCOCC1CN(C)C(=O)O1 (stereo unspecified)
- T/C (dose: 25.0 mg/kg/injection, schedule: Q01DX009 (ip), vehicle: saline): 90 % of control
- T/C (dose: 50.0 mg/kg/injection, schedule: Q01DX009 (ip), vehicle: saline): 110 % of control
- T/C (dose: 50.0 mg/kg/injection, schedule: Q04DX003 (ip), vehicle: saline): 103 % of control
- T/C [8]: 100 % of control
- T/C [9]: 106 % of control
- T/C [10]: 117 % of control
- T/C [11]: 103 % of control
- T/C [12]: 100 % of control
- T/C [13]: 92 % of control

SMILES: CC(C)=CCSc1ncnc2nc[nH]c12
- T/C (dose: 31.0 mg/kg/injection, schedule: Q01DX Z (ip), vehicle: other): 91 % of control
- T/C (dose: 62.0 mg/kg/injection, schedule: Q01DX Z (ip), vehicle: other): 117 % of control
- T/C (dose: 125.0 mg/kg/injection, schedule: Q01DX Z (ip), vehicle: other): 103 % of control
- T/C (dose: 250.0 mg/kg/injection, schedule: Q01DX Z (ip), vehicle: other): 109 % of control

SMILES: CCOC12c3cc(OC)ccc3N(S(=O)(=O)c3ccc(C)cc3)CC1C2(Br)Br (stereo unspecified)
- T/C [19]: 97 % of control
- T/C [1]: 100 % of control
- T/C [20]: 87 % of control
- T/C [2]: 100 % of control
- T/C [21]: 94 % of control
- T/C [3]: 91 % of control
